Laboratory results: patent US10597388B2, “Pyridazinone herbicides” (FMC CORPORATION, priority 2014, dated 2020)

Columns and labels:
Assay in all cases: Test D controlled growth environment herbicide test, pre- and postemergence
Format in all cases: in vivo
[1] = test system: barley, spring (spring barley, Hordeum vulgare)
Source text: (§1) Seeds of plant species selected from bluegrass (annual bluegrass, Poa annua), blackgrass (Alopecurus myosuroides), Canada thistle (Cirsium arvense), canarygrass (Phalaris minor), chickweed (common chickweed, Stellaria media), geranium, cutleaf (cutleaf geranium, Geranium dissectum), galium (catchweed bedstraw, Galium aparine), bromegrass, downy (downy bromegrass, Bromus tectorum), field poppy (Papaver rhoeas), field violet (Viola arvensis), foxtail, green (green foxtail, Setaria viridis), deadnettle (henbit deadnettle, Lamium amplexicaule), ryegrass, Italian (Italian ryegrass, Lolium multiflorum), kochia (Kochia scoparia), lambsquarters (Chenopodium album), oilseed rape (Brassica napus), pigweed (Amaranthus retroflexus), chamomile (scentless chamomile, Matricaria inodora), Russian thistle (Salsola kali), speedwell (bird's-eye speedwell, Veronica persica), barley, spring (spring barley, Hordeum vulgare), wheat, spring (spring wheat, Triticum aestivum), buckwheat, wild (wild buckwheat, Polygonum convolvulus), mustard, wild (wild mustard, Sinapis arvensis), oat, wild (wild oat, Avena fatua), radish, wild (wild radish, Raphanus raphanistrum), windgrass (Apera spica-venti), barley, winter (winter barley, Hordeum vulgare), and wheat, winter (winter wheat, Triticum aestivum) were planted into a silt loam soil and treated preemergence with test chemicals formulated in a non-phytotoxic solvent mixture which included a surfactant.
(§2) At the same time, these species were planted in pots containing Redi-Earth® planting medium (Scotts Company, 14111 Scottslawn Road, Marysville, Ohio 43041) comprising spaghnum peat moss, vermiculite, wetting agent and starter nutrients and treated with postemergence applications of the test chemicals formulated in the same manner. Plants ranged in height from 2 to 18 cm (1- to 4-leaf stage). Treated plants and controls were maintained in a controlled growth environment for 14 to 21 d after which time all species were compared to controls and visually evaluated. Plant response ratings, summarized in Table D, are based on a scale of 0 to 100 where 0 is no effect and 100 is complete control. A dash (-) response means no test result.

[2] = test system: bromegrass, downy (downy bromegrass, Bromus tectorum)
Source text: as §1, §2

[3] = test system: chamomile (scentless chamomile, Matricaria inodora)
Source text: as §1, §2

[4] = test system: deadnettle (henbit deadnettle, Lamium amplexicaule)
Source text: as §1, §2

[5] = test system: field violet (Viola arvensis)
Source text: as §1, §2

[6] = test system: lambsquarters (Chenopodium album)
Source text: as §1, §2

[7] = test system: mustard, wild (wild mustard, Sinapis arvensis)
Source text: as §1, §2

[8] = test system: oat, wild (wild oat, Avena fatua)
Source text: as §1, §2

[9] = test system: oilseed rape (Brassica napus)
Source text: as §1, §2

[10] = test system: radish, wild (wild radish, Raphanus raphanistrum)
Source text: as §1, §2

[11] = test system: speedwell (bird's-eye speedwell, Veronica persica)
Source text: as §1, §2

[12] = test system: wheat, spring (spring wheat, Triticum aestivum)
Source text: as §1, §2

[13] = test system: windgrass (Apera spica-venti)
Source text: as §1, §2

[14] = Postemergence, 31 g ai/ha, scale 0 to 100 (0 no effect, 100 complete control)
[15] = Postemergence, 125 g ai/ha, visual rating on scale 0 (no effect) to 100 (complete control), 14 to 21 d
[16] = Postemergence, 250 g ai/ha, scale 0 to 100 (0 no effect, 100 complete control)
[17] = Preemergence, 62 g ai/ha, scale 0 to 100 (0 no effect, 100 complete control)
[18] = Preemergence, 125 g ai/ha, scale 0 to 100 (0 no effect, 100 complete control)
[19] = Preemergence, 250 g ai/ha, scale 0 to 100 (0 no effect, 100 complete control)
[20] = postemergence, 62 g ai/ha, scale 0 to 100, 0 no effect, 100 complete control

COc1nn(C)c(=O)c(-c2c(C)ccc3ccccc23)c1OC(=O)OC(C)C [Compound 36]
Plant response rating, Barley, Spring [1, 14]: 0 | Plant response rating, Barley, Spring [1, 15]: 0 | Plant response rating, Barley, Spring [1, 16]: 10 | Plant response rating (scale of 0 to 100), Barley, Spring ([1]; Preemergence, 31 g ai/ha): 0 | Plant response rating, Barley, Spring [1, 17]: 0 | Plant response rating, Barley, Spring [1, 18]: 0 | Barley, Spring plant response rating [1, 19]: 0 | Plant response rating, Barley, Spring [1, 20]: 0 | Bromegrass, Downy plant response rating [2, 14]: 10 | Plant response rating, Bromegrass, Downy [2, 15]: 55 | Plant response rating, Bromegrass, Downy [2, 16]: 65 | Plant response rating (scale of 0 to 100), Bromegrass, Downy ([2]; Preemergence, 31 g ai/ha): 0 | Plant response rating, Bromegrass, Downy [2, 17]: 0 | Plant response rating, Bromegrass, Downy [2, 18]: 10 | Plant response rating, Bromegrass, Downy [2, 19]: 35 | Plant response rating, Bromegrass, Downy [2, 20]: 20 | Chamomile plant response rating [3, 14]: 95 | Plant response rating, Chamomile [3, 15]: 100 | Plant response rating, Chamomile [3, 16]: 100 | Plant response rating, Chamomile [3, 20]: 95 | Deadnettle plant response rating [4, 14]: 80 | Plant response rating, Deadnettle [4, 15]: 100 | Plant response rating, Deadnettle [4, 16]: 100 | Plant response rating (scale of 0 to 100), Deadnettle ([4]; Preemergence, 31 g ai/ha): 0 | Plant response rating, Deadnettle [4, 17]: 0 | Plant response rating, Deadnettle [4, 18]: 50 | Plant response rating, Deadnettle [4, 19]: 85 | Plant response rating, Deadnettle [4, 20]: 100 | Field Violet plant response rating [5, 14]: 70 | Plant response rating, Field Violet [5, 15]: 90 | Plant response rating, Field Violet [5, 16]: 90 | Plant response rating (scale of 0 to 100), Field Violet ([5]; Preemergence, 31 g ai/ha): 15 | Plant response rating, Field Violet [5, 17]: 10 | Plant response rating, Field Violet [5, 18]: 70 | Plant response rating, Field Violet [5, 19]: 95 | Plant response rating, Field Violet [5, 20]: 85 | Lambsquarters plant response rating [6, 14]: 95 | Plant response rating, Lambsquarters [6, 15]: 100 | Plant response rating, Lambsquarters [6, 16]: 100 | Plant response rating (scale of 0 to 100), Lambsquarters ([6]; Preemergence, 31 g ai/ha): 75 | Plant response rating, Lambsquarters [6, 17]: 95 | Plant response rating, Lambsquarters [6, 18]: 75 | Plant response rating, Lambsquarters [6, 19]: 95 | Plant response rating, Lambsquarters [6, 20]: 95 | Mustard, Wild plant response rating [7, 14]: 100 | Plant response rating, Mustard, Wild [7, 15]: 100 | Plant response rating, Mustard, Wild [7, 16]: 100 | Plant response rating (scale of 0 to 100), Mustard, Wild ([7]; Preemergence, 31 g ai/ha): 45 | Plant response rating, Mustard, Wild [7, 17]: 85 | Plant response rating, Mustard, Wild [7, 18]: 85 | Plant response rating, Mustard, Wild [7, 19]: 90 | Plant response rating, Mustard, Wild [7, 20]: 100 | Oat, Wild plant response rating [8, 14]: 35 | Plant response rating, Oat, Wild [8, 15]: 85 | Plant response rating, Oat, Wild [8, 16]: 95 | Plant response rating (scale of 0 to 100), Oat, Wild ([8]; Preemergence, 31 g ai/ha): 35 | Plant response rating, Oat, Wild [8, 17]: 45 | Plant response rating, Oat, Wild [8, 18]: 75 | Plant response rating, Oat, Wild [8, 19]: 85 | Plant response rating, Oat, Wild [8, 20]: 80 | Oilseed Rape plant response rating [9, 14]: 75 | Plant response rating, Oilseed Rape [9, 15]: 95 | Plant response rating, Oilseed Rape [9, 16]: 100 | Plant response rating (scale of 0 to 100), Oilseed Rape ([9]; Preemergence, 31 g ai/ha): 0 | Plant response rating, Oilseed Rape [9, 17]: 0 | Plant response rating, Oilseed Rape [9, 18]: 55 | Plant response rating, Oilseed Rape [9, 19]: 65 | Plant response rating, Oilseed Rape [9, 20]: 85 | Radish, Wild plant response rating [10, 14]: 80 | Plant response rating, Radish, Wild [10, 15]: 100 | Plant response rating, Radish, Wild [10, 16]: 100 | Plant response rating (scale of 0 to 100), Radish, Wild ([10]; Preemergence, 31 g ai/ha): 0 | Plant response rating, Radish, Wild [10, 17]: 0 | Plant response rating, Radish, Wild [10, 18]: 50 | Plant response rating, Radish, Wild [10, 19]: 70 | Plant response rating, Radish, Wild [10, 20]: 90 | Speedwell plant response rating [11, 14]: 60 | Plant response rating, Speedwell [11, 15]: 100 | Plant response rating, Speedwell [11, 16]: 100 | Plant response rating (scale of 0 to 100), Speedwell ([11]; Preemergence, 31 g ai/ha): 95 | Plant response rating, Speedwell [11, 17]: 100 | Plant response rating, Speedwell [11, 18]: 100 | Plant response rating, Speedwell [11, 19]: 100 | Plant response rating, Speedwell [11, 20]: 90 | Wheat, Spring plant response rating [12, 14]: 0 | Plant response rating, Wheat, Spring [12, 15]: 0 | Plant response rating, Wheat, Spring [12, 16]: 10 | Plant response rating (scale of 0 to 100), Wheat, Spring ([12]; Preemergence, 31 g ai/ha): 0 | Plant response rating, Wheat, Spring [12, 17]: 0 | Plant response rating, Wheat, Spring [12, 18]: 0 | Plant response rating, Wheat, Spring [12, 19]: 30 | Plant response rating, Wheat, Spring [12, 20]: 0 | Windgrass plant response rating [13, 14]: 40 | Plant response rating, Windgrass [13, 15]: 70 | Plant response rating, Windgrass [13, 16]: 75 | Plant response rating (scale of 0 to 100), Windgrass ([13]; Preemergence, 31 g ai/ha): 0 | Plant response rating, Windgrass [13, 17]: 5 | Plant response rating, Windgrass [13, 18]: 5 | Plant response rating, Windgrass [13, 19]: 65 | Plant response rating, Windgrass [13, 20]: 50
